Experimental data published in patent publication US20230348459A1, “PYRROLIDINE COMPOUND AND USE THEREOF” (SIMCERE PHARMACEUTICAL CO., LTD., priority 2020, published 2023).

Legend:
Format in all cases: in vitro ADME
[1] = Plasma protein binding rate, equilibrium dialysis, dog plasma; conditions: pH 7.4, Beagle dog plasma, 6 hours dialysis
Procedure: (§1) The protein binding rate of the compounds of the present invention in the plasma of five species (human, monkey, dog, rat and mouse) was determined by the following test method.
(§2) • 1. Human plasma (BioIVT), beagle dog plasma (BioIVT), SD rat plasma (BioIVT), CD-1 mouse plasma (BioIVT); • 2. 96-well equilibrium dialysis plate (HTDialysis LLC, Gales Ferry, CT, HTD96B), equilibrium dialysis membrane (MWCO 12-14 K, #1101); • 3. Positive control compound warfarin; • 4. ABI QTrap 5500 liquid chromatography-mass spectrometry.
(§3) 1. Preparation of a buffer with a concentration of 100 mM sodium phosphate and 150 mM NaCl: an alkaline solution with a concentration of 14.2 g/L Na2HPO4 and 8.77 g/L NaCl was prepared with ultrapure water, and an acidic solution with a concentration of 12.0 g/L NaH2PO4 and 8.77 g/L NaCl was prepared with ultrapure water. The alkaline solution was titrated with the acidic solution to pH 7.4 to prepare a buffer with a concentration of 100 mM sodium phosphate and 150 mM NaCl.
(§4) 2. Preparation of dialysis membrane: the dialysis membrane was soaked in ultrapure water for 60 minutes to separate the membrane into two pieces, then soaked in 20% ethanol for 20 minutes, and finally soaked in the buffer used for dialysis for 20 minutes.
(§5) 3. Preparation of plasma: the frozen plasma was quickly thawed at room temperature, then the plasma was centrifuged at 3,220 g at 4° C. for 10 min to remove clots, and the supernatant was collected into a new centrifuge tube. The pH of the plasma was measured and recorded, and the plasma with pH of 7-8 was used.
(§6) 3. Preparation of compound-containing plasma samples: 10 mM stock solution of compounds of the present invention or positive control compounds were diluted with DMSO to obtain 200 µM working solution. […]
(§7) The peak areas of the compounds on the buffer side and the plasma side were determined. […]
(§8) All the data was calculated by the Microsoft Excel software. The plasma protein binding rate values of the compounds of the present invention were calculated.

CYP2C9 = CYP2C9 (Homo sapiens (Human), UniProt P11712); assay: Inhibition of CYP2C9 enzymatic activity in human liver microsomes; conditions: substrate diclofenac
Procedure: The inhibition of CYP2C9 and CYP2D6 enzymatic activities by the compounds of the present invention was determined by the following test method.
• 1. Human liver microsomes (Corning 452117) • 2. NADPH (Solarbio 705Y021) • 3. Positive substrates diclofenac (Sigma SLBV3438), dextromethorphan (TRC 3-EDO-175-1) and midazolam (Cerilliant FE01161704) • 4. Positive inhibitors sulfaphenazole (D. Ehrenstorfer GmbH 109012), quinidine (TCI WEODL-RE) and ketoconazole (Sigma 100M1091V) • 5. AB Sciex Triple Quad 5500 liquid chromatography-mass spectrometry
1. Preparation of 100 mM phosphate buffered saline (PBS): 7.098 g of Na2HPO4 was weighed, 500 mL of pure water was added and subjected to ultrasonic dissolution to obtain solution A. 3.400 g of KH2PO4 was weighed, 250 mL of pure water was added and subjected to ultrasonic dissolution to obtain solution B. Solution A was placed on a stirrer and solution B was slowly added until pH reaches 7.4 to prepare 100 mM PBS buffer.
2. Preparation of 10 mM NADPH solution with 100 mM PBS buffer. 10 mM stock solution of compounds of the invention was diluted with DMSO to obtain a 200× concentration of compound working solution (6000, 2000, 600, 200, 60, 20, 0 µM). The stock solution of positive inhibitors was diluted with DMSO to obtain a 200× concentration of positive inhibitor working solution (sulfaphenazole, 1000, 300, 100, 30, 10, 3, 0 µM; quinidine/ketoconazole, 100, 30, 10, 3, 1, 0.3, 0 µM). A 200 × concentration of substrate working solution (120 µM of diclofenac, 400 µM of dextromethorphan, and 200 µM of midazolam) was prepared in water, acetonitrile, or acetonitrile/methanol.
3. 2 µl of 20 mg/ml liver microsome solution, 1 µl of substrate working solution, 1 µl of compound working solution and 176 µl of PBS buffer were taken, mixed uniformly, and pre-incubated in a 37° C. water bath for 15 minutes. […]
The IC50 values of the compounds of the present invention against CYP2C9 and CYP2D6 were calculated by Excel XLfit 5.3.1.3.

[2] = Plasma protein binding rate, equilibrium dialysis, rat plasma; conditions: pH 7.4, SD rat plasma, 6 hours dialysis
Procedure: as §1, §2, §3, §4, §5, §6, §7, §8

Sequence of CYP2C9 (P11712 whole entry): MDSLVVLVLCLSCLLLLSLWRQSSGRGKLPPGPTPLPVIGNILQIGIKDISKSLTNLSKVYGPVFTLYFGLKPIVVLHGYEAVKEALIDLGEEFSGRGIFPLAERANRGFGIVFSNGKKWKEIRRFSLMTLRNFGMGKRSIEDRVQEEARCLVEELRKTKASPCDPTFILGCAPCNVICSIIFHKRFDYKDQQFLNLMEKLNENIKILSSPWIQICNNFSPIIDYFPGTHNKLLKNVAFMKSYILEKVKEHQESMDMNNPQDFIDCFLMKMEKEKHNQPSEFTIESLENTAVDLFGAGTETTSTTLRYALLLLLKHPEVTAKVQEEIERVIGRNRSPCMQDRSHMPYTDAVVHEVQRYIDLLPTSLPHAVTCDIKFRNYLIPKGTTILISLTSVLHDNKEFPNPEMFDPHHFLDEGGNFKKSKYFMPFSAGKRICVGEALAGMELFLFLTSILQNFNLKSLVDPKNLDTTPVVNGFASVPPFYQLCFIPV

| SMILES | fraction unbound at 6 h, 1 µM [1] | IC50 (CYP2C9) [µM] | fraction unbound at 6 h, 1 µM [2] |
| --- | --- | --- | --- |
| C[C@@H]1Cc2c([nH]c3ccccc23)C(c2c(F)cc(N[C@H]3CCN(CCCF)C3)cc2F)N1CC(F)(F)F (stereo in doubt) [Example 4, (S)-N-(3,5-difluoro-4-((1S,3R)-3-methyl-2-(2,2,2-trifluoroethyl)-2,3,4,9-tetrahydro-1H-pyridino[3,4-b]indol-1-yl)phenyl)-1-(3-fluoropropyl)pyrrolidin-3-amine] | 0.002 | 20 | 0.002 |
| C[C@@H]1Cc2c([nH]c3ccccc23)C(c2c(F)cc(N[C@H]3CCN(CCCF)C3)cc2F)N1CC(F)(F)CO (stereo in doubt) [Example 7, 3-((1S,3R)-1-(2,6-difluoro-4-(((S)-1-(3-fluoropropyl)pyrrolidin-3-yl)amino)phenyl)-3-methyl-3,4-dihydro-1H-pyridino [3,4-b]indole-2(9H)-yl)-2,2-difluoropropane-1-ol] | 0.012 | 8 | 0.015 |
| C[C@@H]1Cc2c([nH]c3ccccc23)[C@@H](c2ccc(N[C@H]3CCN(CCCF)C3)cn2)N1CC(F)(F)F [Example 3, N-((S)-1-(3-fluoropropyl)pyrrolidin-3-yl)-6-((1S,3R)-3-methyl-2-(2,2,2-trifluoroethyl)-2,3,4,9-tetrahydro-1H-pyridino[3,4-b]indol-1-yl)pyridine-3-amine] | 0.013 | > 30 | 0.029 |
